Experiments:
melanoma B16F10 cells = experiment: B16F10 metastasis to the lung in nude mice; assay type: in vivo, mouse
Description: FIG. 4 includes photos showing that Zfra suppresses melanoma B16F10-mediated neurodegeneration in the hippocampus. Nude mice were preinjected with 100 μL, of sterile Milli-Q water or Zfra4-10 (1 mM in sterile water) in 3 consecutive weeks. After treatment for a week, these mice were inoculated with melanoma B16F10 cells on both flanks (2×10^5 cells in 100-μL, PBS). Mice were sacrificed when the tumor sizes grew up to 2000-3000 mm^3 in about a month. (A) Zfra blocked neurodegeneration in the hippocampus (top panel) and prevented the formation of TPC6AΔ plaques in the cortex (bottom panel), which negatively correlates with pS14-WWOX expression. Note the presence of condensed apoptotic nuclei in the hippocampal neurons in the control mice, (B) Metastasis of B16F10 cells to the lung was blocked in Zfra-treated mice. Compared to controls, Zfra suppressed p-S14WWOX expression in the lung by ˜72% suppression (three sections). […] (C and D) The non-spatial learning and memory were determined by novel object recognition task for both 3×Tg and Wwox+/− mice. […]
Six- to eight-week-old male nude (BALB/cAnN.Cg-Foxn1^nu/CrlNarl) mice (National Laboratory Animal Center, Taiwan) were used. […] Tumor volumes were measured daily and calculated using the equation, D×(d)^2/2, where D and d are the major and minor diameters, respectively. […] Z-cell distribution in organs was determined under fluorescence microscopy.

TPC6AΔ peptides = experiment: Aggregation of serine-containing TPC6AΔ peptides in PBS; assay type: biochemical; settings: 24 hours, room temperature
Description: (§1) FIG. 5 includes photos and diagrams showing that Zfra suppresses polymerization or aggregation of serine-containing TPC6AΔ and other peptides in PBS. Zfra4-10 was incubated with an indicated serine-containing peptide in PBS at room temperature for 24 hours (final 200 μM each peptide). The mixtures were subjected to nonreducing sodium dodecyl sulfate polyacrylamide gel electrophoresis (SDS-PAGE). (A) Full-length Zfra or red-fluorescent TMR-Zfra blocked aggregation of Aβ42 (lanes 3, 5, and 7). […] The membrane was stained with antibody against Aβ. (B) Zfra4-10 and one of the TPC6AΔ peptides were resuspended in Milli-Q water or PBS and incubated for 24 hours at room temperature. Zfra4-10 suppressed the polymerization of serine-containing peptides. Reduction in intensity=[1−(Z.P)/(Z+P)]×100%, where Z=Zfra4-10, P=an indicated peptide, and Z.P=peptide mixture. […] Zfra4-10 suppressed polymerization of these peptides in PBS.
Zfra and serine-containing peptides were synthesized by Genemed Synthesis (San Antonio, Tex., USA), (1) Zfra1-31, […] (SEQ ID NO: 2); (2) Zfra4-10, RRSSSCK (SEQ ID NO: 1); (3) WWOX7-21, AGLDDTDSEDELPPG (SEQ ID NO: 3); (4) pS14-WWOX7-21, AGLDDTDpSEDELPPG (SEQ ID NO: 4); (5). […]

[1] = biological target: T1, WWOX7-21, WWOX286-299, and ANKRD40266-281 peptides (Homo sapiens, UniProt Q9NZC7); experiment: Polymerization of serine-containing WWOX and ANKRD40 peptides in PBS; assay type: biochemical
T1 construct: purchased Genemed Synthesis
Description: as §1
(§2) Zfra and serine-containing peptides were synthesized by Genemed Synthesis (San Antonio, Tex., USA), (1) Zfra1-31, […] (SEQ ID NO: 2); (2) Zfra4-10, RRSSSCK (SEQ ID NO: 1); (3) WWOX7-21, AGLDDTDSEDELPPG (SEQ ID NO: 3); (4) pS14-WWOX7-21, AGLDDTDpSEDELPPG (SEQ ID NO: 4); (5). WWOX286-299, DYWAMLAYNRSKLC (SEQ ID NO: 5); (6) pY287-WWOX286-299, DpYWAMLAYNRSKLC (SEQ ID NO: 6); (7) TPC6A24-38, DPGPGGQKMSLSVLE (SEQ ID NO: 7); (8) pS35-TPC6A24-38, DPGPGGQKMSLpSVLE (SEQ ID NO: 8); (9) TPC6A84-100, KDLWVAVFQKQMDSLR (SEQ ID NO: 9); (10) ANKRD40266-281, RIQNPSLRENDFIEIE (SEQ ID NO: 10); (11) pS271-ANKRD40266-281, RIQNPpSLRENDFIEIE (SEQ ID NO: 11); (12) tetramethylrhodamine-labeled Zfra (TMR-Zfra), the full-length Zfra1-31 was labeled with a red-fluorescent […] fluorescent probe tetramethylrhodamine. The peptide stocks were made as 10 mM in degassed sterile Milli-Q water. Each tube was flushed with nitrogen and stored in −80° C. freezer. For tail vein injections, peptides were freshly prepared in degassed Milli-Q water at 1-4 mM in 100-μL Milli-Q. GenBank accession for ANKRD40 is EU164539. Aβ peptides were from AnaSpec, (1) Aβ42: […] (SEQ ID NO: 12); (2) Aβ40: […] […]

[2] = test system: WWOX7-21, WWOX286-299, and ANKRD40266-281 peptides; experiment: as above; assay type: biochemical
Description: as §1, §2

## RRSSSCK [Zfra4-10, truncated zinc finger-like peptide, amino acids 4-10 of Zfra]
Melanoma B16F10 cells
  B16F10 metastasis to the lung: blocked
TPC6AΔ peptides
  aggregation of TPC6AΔ peptides (TPC6AΔ24-38, pS35-TPC6AΔ24-38, TPC6AΔ84-100): effectively blocked
[1]
  aggregation of pY287-WWOX286-299: did not effectively block
[2]
  polymerization of phosphorylated WWOX7-21 and ANKRD40266-281: had apparent effects
  polymerization or aggregation of non-phosphorylated WWOX7-21, WWOX286-299, ANKRD40266-281: effectively blocked

Source: patent publication US10344065B2, “Method for treating Alzheimer's disease and method for downregulating protein aggregation in brain” (National Cheng Kung University, priority 2017, dated 2019)
